Source: patent US4479943A, “3-Demethoxyistamycin B, the 2"-N-formimidoyl derivative thereof and pharmaceutical composition containing same” (Zaidan Hojin Biseibutsu Kagaku Kenkyu Kai, priority 1982, dated 1984)
Converted amounts (≈) assume the structure as drawn.

Tests used:
[1] = test system: Pseudomonas aeruginosa ROS 134/PU21; assay: Antibacterial MIC, standard serial dilution; type: cell-based; conditions: nutrient agar, 37° C., 17 hours, as free base
[2] = test system: Escherichia coli K-12 ML1410 R81; assay: Antibacterial MIC, standard serial dilution; type: cell-based; conditions: nutrient agar, 37° C., 17 hours, as free base
[3] = test system: Providencia sp. Pv16; assay: Antibacterial MIC, standard serial dilution; type: cell-based; conditions: nutrient agar, 37° C., 17 hours, as free base
[4] = test system: Pseudomonas aeruginosa GN315; assay: Antibacterial MIC, standard serial dilution; type: cell-based; conditions: nutrient agar, 37° C., 17 hours, as free base
[5] = test system: Shigella dysenteriae JS11910; assay: Antibacterial MIC, standard serial dilution; type: cell-based; conditions: nutrient agar, 37° C., 17 hours, as free base
[6] = test system: Bacillus anthracis; type: cell-based; conditions: nutrient agar, 37° C., 17 hours, as free base
[7] = test system: Pseudomonas aeruginosa PST1; assay: Antibacterial MIC, standard serial dilution; type: cell-based; conditions: nutrient agar, 37° C., 17 hours, as free base
[8] = test system: Pseudomonas aeruginosa TI-13; assay: Antibacterial MIC, standard serial dilution; type: cell-based; conditions: nutrient agar, 37° C., 17 hours, as free base
[9] = test system: Escherichia coli K-12 C600 R135; assay: Antibacterial MIC, standard serial dilution; type: cell-based; conditions: nutrient agar, 37° C., 17 hours, as free base
[10] = test system: Escherichia coli K-12 R388; assay: Antibacterial MIC, standard serial dilution; type: cell-based; conditions: nutrient agar, 37° C., 17 hours, as free base
[11] = test system: gram-negative and gram-positive bacteria; assay: Antibacterial activity overall (Table 1 spectrum); type: cell-based; conditions: in words
[12] = test system: Serratia marcescens; assay: Antibacterial MIC, standard serial dilution; type: cell-based; conditions: nutrient agar, 37° C., 17 hours, as free base
[13] = test system: Pseudomonas aeruginosa H11; assay: Antibacterial MIC, standard serial dilution; type: cell-based; conditions: nutrient agar, 37° C., 17 hours, as free base
[14] = test system: Escherichia coli K-12 J5R11-2; assay: Antibacterial MIC, standard serial dilution; type: cell-based; conditions: nutrient agar, 37° C., 17 hours, as free base
[15] = test system: Escherichia coli K-12 LA290 R56; assay: Antibacterial MIC, standard serial dilution; type: cell-based; conditions: nutrient agar, 37° C., 17 hours, as free base
[16] = test system: Pseudomonas aeruginosa K-Ps 102; assay: Antibacterial MIC, standard serial dilution; type: cell-based; conditions: nutrient agar, 37° C., 17 hours, as free base
[17] = test system: Staphylococcus aureus Ap01; assay: Antibacterial MIC, standard serial dilution; type: cell-based; conditions: nutrient agar, 37° C., 17 hours, as free base
[18] = test system: Micrococcus flavus FDA 16; assay: Antibacterial MIC, standard serial dilution; type: cell-based; conditions: nutrient agar, 37° C., 17 hours, as free base
[19] = test system: Pseudomonas aeruginosa 21-75; assay: Antibacterial MIC, standard serial dilution; type: cell-based; conditions: nutrient agar, 37° C., 17 hours, as free base
[20] = test system: Proteus vulgaris 0X19; assay: Antibacterial MIC, standard serial dilution; type: cell-based; conditions: nutrient agar, 37° C., 17 hours, as free base
[21] = test system: Sarcina lutea PCI 1001; assay: Antibacterial MIC, standard serial dilution; type: cell-based; conditions: nutrient agar, 37° C., 17 hours, as free base
[22] = test system: Escherichia coli NIHJ; assay: Antibacterial MIC, standard serial dilution; type: cell-based; conditions: nutrient agar, 37° C., 17 hours, as free base
[23] = test system: Klebsiella pneumoniae 22#3038; assay: Antibacterial MIC, standard serial dilution; type: cell-based; conditions: nutrient agar, 37° C., 17 hours, as free base
[24] = test system: Proteus rettgeri GN311; assay: Antibacterial MIC, standard serial dilution; type: cell-based; conditions: nutrient agar, 37° C., 17 hours, as free base
[25] = test system: Escherichia coli JR66/W677; assay: Antibacterial MIC, standard serial dilution; type: cell-based; conditions: nutrient agar, 37° C., 17 hours, as free base
[26] = test system: Escherichia coli K-12 ML1629; assay: Antibacterial MIC, standard serial dilution; type: cell-based; conditions: nutrient agar, 37° C., 17 hours, as free base
[27] = test system: Mycobacterium smegmatis ATCC 607; assay: Antibacterial MIC, standard serial dilution; type: cell-based; conditions: nutrient agar, 37° C., 17 hours, as free base
[28] = test system: Escherichia coli K-12; assay: Antibacterial MIC, standard serial dilution; type: cell-based; conditions: nutrient agar, 37° C., 17 hours, as free base
[29] = test system: Bacillus subtilis PCI 219; assay: Antibacterial MIC, standard serial dilution; type: cell-based; conditions: nutrient agar, 37° C., 17 hours, as free base
[30] = test system: Escherichia coli JR225; assay: Antibacterial MIC, standard serial dilution; type: cell-based; conditions: nutrient agar, 37° C., 17 hours, as free base
[31] = test system: mice; assay: Acute toxicity, intravenous administration in mice; type: in vivo
[32] = test system: Klebsiella pneumoniae PCI602; assay: Antibacterial MIC, standard serial dilution; type: cell-based; conditions: nutrient agar, 37° C., 17 hours, as free base
[33] = test system: Pseudomonas aeruginosa 99; assay: Antibacterial MIC, standard serial dilution; type: cell-based; conditions: nutrient agar, 37° C., 17 hours, as free base
[34] = test system: Staphylococcus epidermidis 109; assay: Antibacterial MIC, standard serial dilution; type: cell-based; conditions: nutrient agar, 37° C., 17 hours, as free base
[35] = test system: Proteus rettgeri GN466; assay: Antibacterial MIC, standard serial dilution; type: cell-based; conditions: nutrient agar, 37° C., 17 hours, as free base
[36] = test system: Pseudomonas aeruginosa No. 12; assay: Antibacterial MIC, standard serial dilution; type: cell-based; conditions: nutrient agar, 37° C., 17 hours, as free base
[37] = test system: Pseudomonas maltophilia GN 907; assay: Antibacterial MIC, standard serial dilution; type: cell-based; conditions: nutrient agar, 37° C., 17 hours, as free base
[38] = test system: Staphylococcus aureus FDA 209P; assay: Antibacterial MIC, standard serial dilution; type: cell-based; conditions: nutrient agar, 37° C., 17 hours, as free base
[39] = test system: Escherichia coli K-12 ML1410; assay: Antibacterial MIC, standard serial dilution; type: cell-based; conditions: nutrient agar, 37° C., 17 hours, as free base
[40] = test system: Escherichia coli K-12 LA290 R64; assay: Antibacterial MIC, standard serial dilution; type: cell-based; conditions: nutrient agar, 37° C., 17 hours, as free base
[41] = test system: Pseudomonas aeruginosa H9; assay: Antibacterial MIC, standard serial dilution; type: cell-based; conditions: nutrient agar, 37° C., 17 hours, as free base
[42] = test system: Salmonella typhi T-63; assay: Antibacterial MIC, standard serial dilution; type: cell-based; conditions: nutrient agar, 37° C., 17 hours, as free base
[43] = test system: Serratia sp. SOU; assay: Antibacterial MIC, standard serial dilution; type: cell-based; conditions: nutrient agar, 37° C., 17 hours, as free base
[44] = test system: Serratia sp. 4; assay: Antibacterial MIC, standard serial dilution; type: cell-based; conditions: nutrient agar, 37° C., 17 hours, as free base
[45] = test system: Staphylococcus aureus Smith; assay: Antibacterial MIC, standard serial dilution; type: cell-based; conditions: nutrient agar, 37° C., 17 hours, as free base
[46] = test system: Pseudomonas aeruginosa A3; assay: Antibacterial MIC, standard serial dilution; type: cell-based; conditions: nutrient agar, 37° C., 17 hours, as free base
[47] = test system: Providencia sp. 2991; assay: Antibacterial MIC, standard serial dilution; type: cell-based; conditions: nutrient agar, 37° C., 17 hours, as free base
[48] = test system: Corynebacterium bovis 1810; assay: Antibacterial MIC, standard serial dilution; type: cell-based; conditions: nutrient agar, 37° C., 17 hours, as free base
[49] = test system: Pseudomonas aeruginosa B-13; assay: Antibacterial MIC, standard serial dilution; type: cell-based; conditions: nutrient agar, 37° C., 17 hours, as free base
[50] = test system: Escherichia coli W677; assay: Antibacterial MIC, standard serial dilution; type: cell-based; conditions: nutrient agar, 37° C., 17 hours, as free base
[51] = test system: Bacillus subtilis NRRL B-558; assay: Antibacterial MIC, standard serial dilution; type: cell-based; conditions: nutrient agar, 37° C., 17 hours, as free base
[52] = test system: Bacillus cereus ATCC 10702; assay: Antibacterial MIC, standard serial dilution; type: cell-based; conditions: nutrient agar, 37° C., 17 hours, as free base
[53] = test system: Salmonella enteritidis 1891; assay: Antibacterial MIC, standard serial dilution; type: cell-based; conditions: nutrient agar, 37° C., 17 hours, as free base
[54] = test system: Pseudomonas aeruginosa; conditions: in words; earlier filings; cited from earlier work

## CNCC1CCC(N)C(OC2C(N)CCC(N(C)C(=O)CN)C2O)O1 (stereo not shown) [DB, 3-demethoxyistamycin B]
[1]
  MIC: 50 µg/mL (≈ 139 µM)
[2]
  MIC: 0.78 µg/mL (≈ 2.17 µM)
[3]
  MIC: 0.78 µg/mL (≈ 2.17 µM)
[4]
  MIC: 6.25 µg/mL (≈ 17.4 µM)
[5]
  MIC: 1.56 µg/mL (≈ 4.34 µM)
[6]
  MIC: 0.39 µg/mL (≈ 1.08 µM)
[7]
  MIC: 12.5 µg/mL (≈ 34.8 µM)
[8]
  MIC: 6.25 µg/mL (≈ 17.4 µM)
[9]
  MIC: 0.78 µg/mL (≈ 2.17 µM)
[10]
  MIC: 0.39 µg/mL (≈ 1.08 µM)
[11]
  antibacterial activity: the most active compound
[12]
  MIC: 0.78 µg/mL (≈ 2.17 µM)
[13]
  MIC: 25.0 µg/mL (≈ 69.5 µM)
[14]
  MIC: 0.78 µg/mL (≈ 2.17 µM)
[15]
  MIC: 0.39 µg/mL (≈ 1.08 µM)
[16]
  MIC: 12.5 µg/mL (≈ 34.8 µM)
[17]
  MIC: 0.39 µg/mL (≈ 1.08 µM)
[18]
  MIC: 3.13 µg/mL (≈ 8.71 µM)
[19]
  MIC: 50 µg/mL (≈ 139 µM)
[20]
  MIC: 0.39 µg/mL (≈ 1.08 µM)
[21]
  MIC: < 0.20 µg/mL
[22]
  MIC: 0.39 µg/mL (≈ 1.08 µM)
[23]
  MIC: 1.56 µg/mL (≈ 4.34 µM)
[24]
  MIC: 0.39 µg/mL (≈ 1.08 µM)
[25]
  MIC: 0.78 µg/mL (≈ 2.17 µM)
[26]
  MIC: 0.78 µg/mL (≈ 2.17 µM)
[27]
  MIC: 0.39 µg/mL (≈ 1.08 µM)
[28]
  MIC: 0.78 µg/mL (≈ 2.17 µM)
[29]
  MIC: < 0.20 µg/mL
[30]
  MIC: 0.78 µg/mL (≈ 2.17 µM)
[31]; mice, intravenous, in words
  acute toxicity: low toxicity
[31]; mouse, in vivo, iv, 336 h
  tolerated dose (all treated mice): 100 mg/kg
[32]
  MIC: 0.78 µg/mL (≈ 2.17 µM)
[33]
  MIC: 25 µg/mL (≈ 69.5 µM)
[34]
  MIC: < 0.20 µg/mL
[35]
  MIC: 0.39 µg/mL (≈ 1.08 µM)
[36]
  MIC: 12.5 µg/mL (≈ 34.8 µM)
[37]
  MIC: 100 µg/mL (≈ 278 µM)
[38]
  MIC: < 0.20 µg/mL
[39]
  MIC: 1.56 µg/mL (≈ 4.34 µM)
[40]
  MIC: 0.78 µg/mL (≈ 2.17 µM)
[41]
  MIC: 12.5 µg/mL (≈ 34.8 µM)
[42]
  MIC: < 0.20 µg/mL
[43]
  MIC: 3.13 µg/mL (≈ 8.71 µM)
[44]
  MIC: 12.5 µg/mL (≈ 34.8 µM)
[45]
  MIC: 0.20 µg/mL (≈ 0.556 µM)
[46]
  MIC: 0.39 µg/mL (≈ 1.08 µM)
[47]
  MIC: 1.56 µg/mL (≈ 4.34 µM)
[48]
  MIC: < 0.20 µg/mL
[49]
  MIC: 50 µg/mL (≈ 139 µM)
[50]
  MIC: 0.39 µg/mL (≈ 1.08 µM)
[51]
  MIC: < 0.20 µg/mL
[52]
  MIC: 1.56 µg/mL (≈ 4.34 µM)
[53]
  MIC: 1.56 µg/mL (≈ 4.34 µM)

## CN(C(=O)CN)C1C(O)CC(N)C(OC2OC(CN)CCC2N)C1O (stereo not shown) [di-N^6',O^3 -demethylistamycinA]
[54]
  antibacterial activity against Pseudomonas aeruginosa: significantly higher than the parent istamycin A
